Target: T1, HSA (Homo sapiens, UniProt P02768)
T1 construct: purchased Sigma A-8673
Test: Rates of reaction (kinetics of biotinylation) of library members with HSA
Type: binding
Procedure: The rates of reaction of four members of the library with HSA were determined, and the kinetics describing the biotinylation of HSA by these members of the library is shown in FIG. 2. The curves all show a characteristic early fast phase of reaction followed by a slowing of the reaction at later times. The maximal rate of reaction is determined by chosing the best straight line fit for the early values of the time course.
Members of the library differ in their structures from that of the thiophenyl ester of biotin in that a pentapeptide with a C- terminus amide is present and the ester function is spatially distinct because its position is on the amino acid side chain of glutamate.

T1 sequence (P02768 25-609): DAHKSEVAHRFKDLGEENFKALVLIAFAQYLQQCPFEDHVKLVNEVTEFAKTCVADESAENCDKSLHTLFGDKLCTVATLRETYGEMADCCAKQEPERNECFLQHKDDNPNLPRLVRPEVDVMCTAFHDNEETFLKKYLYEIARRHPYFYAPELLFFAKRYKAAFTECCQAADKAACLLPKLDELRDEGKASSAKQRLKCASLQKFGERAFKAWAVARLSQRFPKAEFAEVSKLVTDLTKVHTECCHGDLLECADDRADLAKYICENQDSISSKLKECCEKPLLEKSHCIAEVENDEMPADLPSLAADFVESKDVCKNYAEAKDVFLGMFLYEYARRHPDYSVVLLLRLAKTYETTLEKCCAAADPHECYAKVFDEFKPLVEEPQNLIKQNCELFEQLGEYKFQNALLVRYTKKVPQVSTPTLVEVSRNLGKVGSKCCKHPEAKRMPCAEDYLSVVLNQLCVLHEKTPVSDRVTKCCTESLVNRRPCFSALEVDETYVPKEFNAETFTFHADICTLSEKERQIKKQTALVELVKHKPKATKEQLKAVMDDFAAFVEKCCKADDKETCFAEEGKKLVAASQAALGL

With `O=C1NC2CSC(CCCCC(=O)Sc3ccccc3)C2N1` (centres unmarked) [Thiophenyl Biotin, thiophenyl ester of biotin] the Rate (maximal rate of biotinylation of HSA, best straight line fit of early time course (FIG. 2)) was 0.0004-0.002 OD units/min and the “Fold Increase over 80 μM thiophenyl biotin” value (rate of reaction with HSA relative to thiophenyl ester of biotin) was 1 fold.

Reference: patent publication US6277583A, “Affinity labeling libraries and applications thereof” (Conjuchem, Inc., priority 1996, dated 2001)
